In patent EP4129284B1, “SERTACONAZOL FOR PROVIDING A SPORISTATIC AND/OR SPORICIDAL EFFECT” (Dr. Pfleger Arzneimittel GmbH, priority 2021, dated 2023):

Test system: full skin models
Type: cell-based, human
Conditions: for cell viability: human
Procedure: Additionally, the influence on the cell viability and the release of lactate dehydrogenase (LDH) was examined over the incubation time. Disruptions of the cell membranes can be measured by the release of the cytosolic enzyme LDH and be evaluated as a marker for cellular necrosis. As the biocompatibility of the material is determined by further cellular and molecular factors, the analysis of the cellular interleukin release allows the conclusion on e.g. pro-inflammatory effects of the substances, which would not be possible to be detected by sole cytotoxicity. Such interleukins are interleukins 1α, 6 or 8, which are involved in coordinating the cellular proliferation, cell migration and possible inflammatory processes. Such a method is described in, for example, Wiegand C, Hipler UC. Evaluation of biocompatibility and cytotoxicity using keratinocyte and fibroblast cultures. Skin Pharmacol Physiol 2009; 22:74-82; Wiegand C, Winter D, Hipler UC. Molecular-weight-dependent toxic effects of chitosans on the human keratinocyte cell line HaCaT. Skin Pharmacol Physiol. 2010;23(3):164-70.
The spore suspensions and the solutions of sertaconazol, ciclopiroxolamin and terbinafin were prepared as in Example 1, wherein the respective test concentrations were obtained by diluting these solutions in ultrapure water (WFI; Fresenius Kabi) instead of SGB (Merck). Full skin models were produced as previously described [Reddersen K, Wiegand C, Elsner P, Hipler UC. Three-dimensional human skin model infected with Staphylococcus aureus as a tool for evaluation of bioactivity and biocompatibility of antiseptics. Int J Antimicrob Agents. 2019; 54(3):283-291; Wiegand C, Fink S, Beier O, Horn K, Pfuch A, Schimanski A, Grünler B, Hipler UC, Elsner P. Dose- and Time-Dependent Cellular Effects of Cold Atmospheric Pressure Plasma Evaluated in 3D Skin Models. Skin Pharmacol Physiol. 2016;29(5):257-265].Particularly, normal human dermal fibroblasts (NHDF; Lot 1060702.1, Promocell) and normal human epidermal keratinocytes (NHEK; Lot 9100102, Promocell) were used. Fibroblasts were cultivated in Dulbecco's modified eagle medium (DMEM; Lot MC09049P, Amimed), with 2% foetal calf serum (Lot P160509; PAN), 5 ng/mL hFGF (Lot 0329586; novoprotein) and 5 µg/ml Insulin (Lot H07443P, AMIMED) at 37°C and a 5% CO2 atmosphere. Keratinocytes were cultivated in keratinocyte medium (KBM, Lot 446M063, Promocell) at 37°C and a 5% CO2 atmosphere. The cultivation was performed over 7 days in 75 cm^2 cell culture flasks (Greiner Bio-One). The cells were subsequently detached with Trypsin-EDTA (Lot 2091326; Gibco) and dissolved in the respective medium. For producing the dermis equivalent, fibroblasts were cultivated in 12-well inserts (Greiner bio-one) with DMEM (Lot MC09049P, Amimed) + 10% foetal calf serum (Lot P160509, PAN) + 1% Gentamycin (Lot 2027100, Gibco) + 150 µg/ml ascorbic acid (Lot BCBS1081V, Sigma) for 3 weeks at […] and 5 % CO2. The medium was changed all 2-3 days. Before seeding the keratinocytes for producing the […], the medium surrounding the insert was completely removed and the dermis upper layer was coated with fibronectin (50 µg/mL; Lot 435P078, Promocell). After 30 min of incubation of the dermis equivalent with fibronectin, the seeding of the keratinocytes was performed with 2 × 10^5 cells / insert in KBM (Lot 446M063, Promocell) + 5% FKS (Lot P160509, PAN) + 1% Gentamycin (Lot 2027100, Gibco). Subsequently, the skin models were incubated for 45 min in the incubator before the models were flooded with KBM + 5% FKS + 1% Gentamycin. The skin models were cultivated for 7 days by submersion in the medium with decreasing foetal calf serum concentration (5 %, 2 %, 0 %). The medium was changed all 2-3 days. After the cultivation by submersion, the skin models were further cultivated for 12 days at the air-medium interface (airlift cultivation). […]

Clc1ccc(C(Cn2ccnc2)OCc2csc3c(Cl)cccc23)c(Cl)c1 (stereo not drawn) [Sertaconazol, sertaconazol]
effect on the cell viability of the full skin models: did not have a negative effect
secretion of LDH: no significant secretion
cell viability: ≥ 70%

CN(C/C=C/C#CC(C)(C)C)Cc1cccc2ccccc12 [Terbinafin, terbinafin]
effect on the cell viability of the full skin models: did not have a negative effect
secretion of LDH: no significant secretion
cell viability: ≥ 70%

Cc1cc(C2CCCCC2)n(O)c(=O)c1 [Ciclopiroxolamin, ciclopiroxolamin]
effect on the cell viability of the full skin models: did not have a negative effect
secretion of LDH: no significant secretion
cell viability: ≥ 70%
